According to patent US12077503B2, “Substituted cyclic amides and their use as herbicides” (FMC CORPORATION, priority 2015, dated 2024):

How the values were obtained:
Type in all cases: in vivo
Kochia (Kochia scoparia) [1] = test: Test A preemergence; conditions: Preemergence; for Plant response rating, Kochia: 125 g ai/ha, visual injury after approximately 10 d, 0 to 100 scale where 0 is no effect and 100 is complete control; for Kochia plant response rating (0 to 100 scale, 0 is no effect, 100 is complete control): 500 g ai/ha, visual injury approx. 10 d
Text: (§1) Seeds of plant species selected from barnyardgrass (Echinochloa crus-galli), Kochia (Kochia scoparia), ragweed (common ragweed, Ambrosia elatior), ryegrass, Italian (Italian ryegrass, Lolium multiflorum), crabgrass, large (Digitaria sanguinalis), giant foxtail (Setaria faberii), green foxtail (Setaria viridis), morningglory (Ipomoea spp.), pigweed (Amaranthus retroflexus), velvetleaf (Abutilon theophrasti), wheat (Triticum aestivum), and corn (Zea mays) were planted into a blend of loam soil and sand and treated preemergence with a directed soil spray using test chemicals formulated in anon-phytotoxic solvent mixture which included a surfactant.
(§2) At the same time, plants selected from these crop and weed species and also blackgrass (Alopecurus myosuroides), and Galium (catchweed bedstraw, Galium aparine) were planted in pots containing the same blend of loam soil and sand and treated with postemergence applications of test chemicals formulated in the same manner. Plants ranged in height from 2 to 10 cm and were in the one- to two-leaf stage for the postemergence treatment. Treated plants and untreated controls were maintained in a greenhouse for approximately 10 d, after which time all treated plants were compared to untreated controls and visually evaluated for injury. Plant response ratings, summarized in Table A, are based on a 0 to 100 scale where 0 is no effect and 100 is complete control. A dash (-) response means no test result.

[2] = test system: barnyardgrass (Echinochloa crus-galli); test: Test A preemergence; conditions: Preemergence; for Plant response rating, Barnyardgrass: 125 g ai/ha, visual injury after approximately 10 d, 0 to 100 scale where 0 is no effect and 100 is complete control; for Barnyardgrass plant response rating (0 to 100 scale, 0 is no effect, 100 is complete control): 500 g ai/ha, visual injury approx. 10 d
Text: as §1, §2

[3] = test system: giant foxtail (Setaria faberii); test: Test A preemergence; conditions: Preemergence; for Plant response rating, Foxtail, Giant: 125 g ai/ha, visual injury after approximately 10 d, 0 to 100 scale where 0 is no effect and 100 is complete control; for Foxtail, Giant plant response rating (0 to 100 scale, 0 is no effect, 100 is complete control): 500 g ai/ha, visual injury approx. 10 d
Text: as §1, §2

[4] = test system: pigweed (Amaranthus retroflexus); test: Test A preemergence; conditions: Preemergence; for Plant response rating, Pigweed: 125 g ai/ha, visual injury after approximately 10 d, 0 to 100 scale where 0 is no effect and 100 is complete control; for Pigweed plant response rating (0 to 100 scale, 0 is no effect, 100 is complete control): 500 g ai/ha, visual injury approx. 10 d
Text: as §1, §2

[5] = test system: ragweed (common ragweed, Ambrosia elatior); test: Test A preemergence; conditions: Preemergence; for Plant response rating, Ragweed: 125 g ai/ha, visual injury after approximately 10 d, 0 to 100 scale where 0 is no effect and 100 is complete control; for Ragweed plant response rating (0 to 100 scale, 0 is no effect, 100 is complete control): 500 g ai/ha, visual injury approx. 10 d
Text: as §1, §2

[6] = test system: ryegrass, Italian (Italian ryegrass, Lolium multiflorum); test: Test A preemergence; conditions: Preemergence; for Plant response rating, Ryegrass, Italian: 125 g ai/ha, visual injury after approximately 10 d, 0 to 100 scale where 0 is no effect and 100 is complete control; for Ryegrass, Italian plant response rating (0 to 100 scale, 0 is no effect, 100 is complete control): 500 g ai/ha, visual injury approx. 10 d
Text: as §1, §2

[7] = test system: Galium (catchweed bedstraw, Galium aparine); test: Test A postemergence
Text: as §1, §2

Kochia (Kochia scoparia) [8] = test: Test A postemergence
Text: as §1, §2

[9] = test system: barnyardgrass (Echinochloa crus-galli); test: Test A postemergence
Text: as §1, §2

[10] = test system: blackgrass (Alopecurus myosuroides); test: Test A postemergence
Text: as §1, §2

corn (Zea mays) = test: Test A postemergence
Text: as §1, §2

[11] = test system: giant foxtail (Setaria faberii); test: Test A postemergence
Text: as §1, §2

[12] = test system: pigweed (Amaranthus retroflexus); test: Test A postemergence
Text: as §1, §2

[13] = test system: ragweed (common ragweed, Ambrosia elatior); test: Test A postemergence
Text: as §1, §2

[14] = test system: ryegrass, Italian (Italian ryegrass, Lolium multiflorum); test: Test A postemergence
Text: as §1, §2

[15] = test system: wheat (Triticum aestivum); test: Test A postemergence
Text: as §1, §2

[16] = 125 g ai/ha, postemergence, visual rating after approx. 10 d, 0 to 100 scale (0 no effect, 100 complete control)
[17] = Postemergence, 500 g ai/ha, 0 to 100 scale where 0 is no effect and 100 is complete control

| Compound | Plant response rating, Kochia (Kochia (Kochia scoparia) [1]) | Kochia plant response rating (0 to 100 scale, 0 is no effect, 100 is complete control) (Kochia (Kochia scoparia) [1]) | Plant response rating, Barnyardgrass [2] | Barnyardgrass plant response rating (0 to 100 scale, 0 is no effect, 100 is complete control) [2] | Plant response rating, Foxtail, Giant [3] | Foxtail, Giant plant response rating (0 to 100 scale, 0 is no effect, 100 is complete control) [3] | Plant response rating, Pigweed [4] | Pigweed plant response rating (0 to 100 scale, 0 is no effect, 100 is complete control) [4] | Plant response rating, Ragweed [5] | Ragweed plant response rating (0 to 100 scale, 0 is no effect, 100 is complete control) [5] | Plant response rating, Ryegrass, Italian [6] | Ryegrass, Italian plant response rating (0 to 100 scale, 0 is no effect, 100 is complete control) [6] | Plant response rating, Galium [7, 16] | Plant response rating, Galium [7, 17] | Plant response rating, Kochia (Kochia (Kochia scoparia) [8]; [16]) | Plant response rating, Kochia (Kochia (Kochia scoparia) [8]; [17]) | Plant response rating, Barnyardgrass [9, 16] | Plant response rating, Barnyardgrass [9, 17] | Plant response rating, Blackgrass [10, 16] | Plant response rating, Blackgrass [10, 17] | other results |
| --- | --- | --- | --- | --- | --- | --- | --- | --- | --- | --- | --- | --- | --- | --- | --- | --- | --- | --- | --- | --- | --- |
| CCc1cccc(C2CN(C)C(=O)C2C(=O)Nc2cccc(F)c2F)c1 (stereo not drawn) [Compound 568] | 70 | 80 | 90 | 100 | 100 | 100 | 30 | 60 | 20 | 50 | 70 | 100 | 60 | 60 | 70 | 70 | 100 | 100 | 60 | 90 | Plant response rating, Corn (corn (Zea mays); [16]): 60; Plant response rating, Corn (corn (Zea mays); [17]): 90; Plant response rating, Foxtail, Giant [11, 16]: 90; Plant response rating, Foxtail, Giant [11, 17]: 90; Plant response rating, Pigweed [12, 16]: 30; Plant response rating, Pigweed [12, 17]: 60; Plant response rating, Ragweed [13, 16]: 30; Plant response rating, Ragweed [13, 17]: 30; Plant response rating, Ryegrass, Italian [14, 16]: 70; Plant response rating, Ryegrass, Italian [14, 17]: 90; Plant response rating, Wheat [15, 16]: 30; Plant response rating, Wheat [15, 17]: 70 |
| CCc1cccc(C2CN(C)C(=O)C2C(=O)Nc2ccccc2S(C)(=O)=O)c1 (stereo not drawn) [Compound 569] | 60 | 90 | 90 | 100 | 100 | 100 | 50 | 80 | 60 | 70 | 30 | 70 | 40 | 60 | 20 | 50 | 90 | 90 | 60 | 80 | Plant response rating, Corn (corn (Zea mays); [16]): 20; Plant response rating, Corn (corn (Zea mays); [17]): 60; Plant response rating, Foxtail, Giant [11, 16]: 90; Plant response rating, Foxtail, Giant [11, 17]: 90; Plant response rating, Pigweed [12, 16]: 0; Plant response rating, Pigweed [12, 17]: 50; Plant response rating, Ragweed [13, 16]: 30; Plant response rating, Ragweed [13, 17]: 60; Plant response rating, Ryegrass, Italian [14, 16]: 40; Plant response rating, Ryegrass, Italian [14, 17]: 60; Plant response rating, Wheat [15, 16]: 30; Plant response rating, Wheat [15, 17]: 70 |
| CN1CC(c2cccc(C(F)(F)F)c2)C(C(=O)Nc2cccc(C#N)c2F)C1=O (stereo not drawn) [Compound 576] | 20 | 90 | 90 | 90 | 90 | 90 | 20 | 80 | 20 | 60 | 20 | 30 | 50 | 60 | 30 | 60 | 90 | 90 | 50 | 50 | Plant response rating, Corn (corn (Zea mays); [16]): 80; Plant response rating, Corn (corn (Zea mays); [17]): 80; Plant response rating, Foxtail, Giant [11, 16]: 90; Plant response rating, Foxtail, Giant [11, 17]: 90; Plant response rating, Pigweed [12, 16]: 0; Plant response rating, Pigweed [12, 17]: 50; Plant response rating, Ragweed [13, 16]: 30; Plant response rating, Ragweed [13, 17]: 50; Plant response rating, Ryegrass, Italian [14, 16]: 30; Plant response rating, Ryegrass, Italian [14, 17]: 60; Plant response rating, Wheat [15, 16]: 60; Plant response rating, Wheat [15, 17]: 70 |
